Laboratory results taken from article PMC10924921, “Mi-2β promotes immune evasion in melanoma by activating EZH2 methylation” (Nature Communications, 2024).
pIC50: −log10 of the molar value.

Legend:
[1] = biological target: recombinant purified human Mi-2β protein (Homo sapiens, UniProt Q14839); assay: FRET-based nucleosome repositioning assay (EpiDyne-FRET); conditions: read-out: apparent ATP Km; ATP titration 0.1 to 300 µM, 12.5 nM Mi-2β, 15 minutes
[2] = system: BRafV600E/Ptennull melanoma cells with or without Mi-2β; assay: CCK-8 proliferation after Braf inhibitor; assay type: cell-based, mouse; conditions: 10 μM, 24 h
Description: To test whether Mi-2β deficiency affects the sensitivity of tumor cells to Braf inhibitors, melanoma cells were isolated from Tyr::CreER;BRaf^CA;Pten^lox/lox and Tyr::CreER;BRaf^CA;Pten^lox/lox; Mi-2β^lox/lox mice and a cell proliferation assay was performed. BRAF mutation and Mi-2β-depleted melanoma cells or BRAF mutation melanoma cells (5 × 10^3 cells/100 μl) were cultured with 10 μM PLX4032 (Selleck, China) for 24 h and cell proliferation of melanoma cells were determined using the CCK-8 assay.
Supplementary Figure 2. […] Scale bar=200 µm. b Tumor-infiltrating lymphocytes were assayed by flow cytometry. c Treg cells within CD45+ T cells in TILs were assayed and quantified by flow cytometry.
(n=5). d Melanomas isolated from BRafV600E/Ptennull mice and BRafV600E/Ptennull /Mi-2βnull mice were processed for immunohistochemistry staining to detect the number of CD8+ T cells. […] Melanoma cells isolated from Tyr::CreER;BRafCA;Ptenlox/lox and Tyr::CreER;BRafCA;Ptenlox/lox;Mi-2βlox/lox mice were treated with PLX4032 (10μM) for 24 hours and cell proliferation was determined by CCK-8 assay (n=6). c, e, f: Values represent mean ± SD. […]

[3] = system: PC3 prostate cancer cells; design: method as in Shubhada Sharma, et al., Biochemistry 2013; conditions: ref Shubhada Sharma, et al., Biochemistry 2013; read-out: IC50, cytotoxicity; cited from earlier work
melanoma = conditions: cited from earlier work

Chain of recombinant purified human Mi-2β protein (Q14839 whole entry): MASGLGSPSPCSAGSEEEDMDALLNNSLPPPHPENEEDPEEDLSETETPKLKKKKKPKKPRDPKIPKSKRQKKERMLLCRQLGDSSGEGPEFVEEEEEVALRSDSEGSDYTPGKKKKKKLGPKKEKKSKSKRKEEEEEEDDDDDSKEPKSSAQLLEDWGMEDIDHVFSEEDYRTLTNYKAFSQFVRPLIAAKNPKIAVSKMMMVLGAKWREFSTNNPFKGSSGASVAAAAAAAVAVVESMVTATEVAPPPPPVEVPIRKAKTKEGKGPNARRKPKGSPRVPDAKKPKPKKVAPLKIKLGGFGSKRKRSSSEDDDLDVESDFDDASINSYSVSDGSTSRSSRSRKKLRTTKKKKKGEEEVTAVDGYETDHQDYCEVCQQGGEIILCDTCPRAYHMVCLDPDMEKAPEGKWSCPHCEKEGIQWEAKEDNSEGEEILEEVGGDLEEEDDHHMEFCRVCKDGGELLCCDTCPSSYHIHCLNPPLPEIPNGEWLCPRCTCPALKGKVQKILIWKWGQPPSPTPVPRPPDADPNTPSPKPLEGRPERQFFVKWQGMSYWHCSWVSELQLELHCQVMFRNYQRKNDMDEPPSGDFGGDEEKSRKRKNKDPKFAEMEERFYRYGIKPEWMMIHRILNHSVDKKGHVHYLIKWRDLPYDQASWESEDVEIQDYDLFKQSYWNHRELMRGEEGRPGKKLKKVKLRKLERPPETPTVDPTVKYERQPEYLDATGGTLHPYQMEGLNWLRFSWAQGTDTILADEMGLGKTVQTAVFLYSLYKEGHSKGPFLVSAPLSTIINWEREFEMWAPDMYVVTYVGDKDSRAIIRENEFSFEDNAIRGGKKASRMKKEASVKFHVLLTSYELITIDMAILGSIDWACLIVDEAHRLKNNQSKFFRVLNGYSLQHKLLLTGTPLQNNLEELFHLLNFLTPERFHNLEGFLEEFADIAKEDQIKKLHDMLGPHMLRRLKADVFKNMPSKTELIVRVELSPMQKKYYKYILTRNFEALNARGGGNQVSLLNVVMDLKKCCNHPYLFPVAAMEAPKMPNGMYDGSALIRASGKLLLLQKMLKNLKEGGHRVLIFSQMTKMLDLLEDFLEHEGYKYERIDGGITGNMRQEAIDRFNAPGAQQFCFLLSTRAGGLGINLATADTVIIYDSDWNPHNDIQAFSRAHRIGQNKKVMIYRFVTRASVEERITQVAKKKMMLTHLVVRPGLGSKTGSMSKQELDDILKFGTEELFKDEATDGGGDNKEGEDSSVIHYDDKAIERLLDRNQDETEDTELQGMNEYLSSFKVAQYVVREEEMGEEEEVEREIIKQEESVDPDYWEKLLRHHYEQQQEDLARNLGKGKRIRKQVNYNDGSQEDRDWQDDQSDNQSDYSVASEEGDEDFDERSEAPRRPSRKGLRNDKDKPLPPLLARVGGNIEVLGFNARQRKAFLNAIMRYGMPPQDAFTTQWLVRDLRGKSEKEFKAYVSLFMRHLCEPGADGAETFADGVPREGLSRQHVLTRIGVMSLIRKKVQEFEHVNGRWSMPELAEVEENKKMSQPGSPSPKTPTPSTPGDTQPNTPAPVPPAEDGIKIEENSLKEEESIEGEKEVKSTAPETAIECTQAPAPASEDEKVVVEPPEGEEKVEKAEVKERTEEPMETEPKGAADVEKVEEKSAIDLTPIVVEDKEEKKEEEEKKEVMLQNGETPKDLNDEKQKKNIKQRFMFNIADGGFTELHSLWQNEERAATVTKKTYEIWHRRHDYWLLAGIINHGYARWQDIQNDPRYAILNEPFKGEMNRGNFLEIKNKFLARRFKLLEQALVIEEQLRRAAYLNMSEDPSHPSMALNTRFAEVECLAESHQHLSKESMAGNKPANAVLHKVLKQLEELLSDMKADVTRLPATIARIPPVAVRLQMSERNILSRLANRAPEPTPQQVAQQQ

Work on `Nc1ncnc2c1ncn2[C@@H]1O[C@H](COP(=O)(O)OP(=O)(O)OP(=O)(O)O)[C@@H](O)[C@H]1O` [ATP] yielded a Km [1] of 11.5 µM.

In the case of `CCCS(=O)(=O)Nc1ccc(F)c(C(=O)c2c[nH]c3ncc(-c4ccc(Cl)cc4)cc23)c1F` [PLX4032], the “cell survival in melanoma cells with or without Mi-2β expression” value [2] was “no difference in cell survival”.

In the case of `CC(=O)O[C@H]1C(=O)[C@@]2(C)[C@H]([C@H](OC(=O)c3ccccc3)[C@]3(O)C[C@H](OC(=O)[C@H](O)[C@@H](NC(=O)c4ccccc4)c4ccccc4)C(C)=C1C3(C)C)[C@]1(OC(C)=O)CO[C@@H]1C[C@@H]2O` [paclitaxel], the pIC50 [3] is listed as 8.85.

In the case of ipilimumab: anti-CTLA-4 antibody, the “melanoma patients that respond” value (melanoma) is given as 20%.

For pembrolizumab: anti-PD-1 antibody, the “melanoma patients that respond” value (melanoma) is given as 33%.
